Read-outs that look alike come from different tables or passages of the source.
Columns and labels:
[1] = 28-day toxicity study in rats; assay type: in vivo
Excerpt: Safe starting dose & exposure limit justification: This trial followed the recommendations of the EMA (European Medicines Agency) (EMEA/CHMP/SWP/28367/07 Rev. 1; 20 Jul. 2017) and the FDA (Food and Drug Administration) (Guidance for Industry: Estimating the Maximum Safe Starting Dose in Initial Clinical Trials for Therapeutics in Adult Healthy Volunteers. U.S. Department of Health and Human Services Food and Drug Administration Center for Drug Evaluation and Research (CDER) July 2005) for dose finding in a first-in-human study. The safe starting dose was set based on toxicity studies in animals. In a 28-day toxicity study in rats, the no-observed-adverse-effect-level (NOAEL) was determined to be 50 mg/kg/day (human equivalent dose of 8.1 mg/kg). The dose range of the current trial was designed to start at 50 mg. Escalation between doses was planned to be flexible depending on emerging results but not to exceed an increment of 2-fold.

[2] = phase 1 study in patients with mild to moderate Parkinson's disease (PK, safety); assay type: in vivo, human; settings: PD patients; for AR AUC (accumulation ratio, geometric mean): AUC(0-tau); for Frel AUC(0-24) / Frel Cmax: Day 9 fed vs Day 7 QD fasted; for Cmax / Tmax / AUC / concentration at 24 h / Tmax at 7 days: Regimen A 150 mg QD (row prints fed, title fasted state); for Cmax: read-out: Cmax (geometric mean); for AUC: read-out: AUC(0-tau) (geometric mean); for concentration at 24 h: read-out: Ctau (geometric mean)
Excerpt: Study Title: A Single Part Study to Assess the Safety, Tolerability, Pharmacokinetics and Pharmacodynamics of Multiple Ascending Oral Doses of anle138b, and to Characterize the Effect of Food on the Pharmacokinetics of anle138b in Patients with Mild to Moderate Parkinson's Disease.
This was a two-center, double-blind, randomised, placebo-controlled study that enrolled twenty two (22) participants in cohorts (i.e. regimens) A-C. All completed the study per protocol. After completion of Cohorts A to C it was decided to add Cohorts D and E of 24 subjects. Cohort D expanded sample size of previous dosing regiments 150 mg and 300 mg QD and Cohort E administration of anle138b 300 mg for 28 days, under non fasted conditions.
Drug product used is described in section 1.3, supra, placebo was vehicle in capsule. Subjects were between 50 and 80 years of age with a diagnosis of idiopathic PD as defined by the Movement Disorders Society criteria (either fulfilling criteria for “Clinically Established PD” or for “Clinically Probable PD”). They had to present with Hoehn and Yahr stage I-III (i.e. able to walk unaided), and stable medication for PD for 1 month prior to inclusion and anticipated over the study period. The subjects were randomly assigned to receive one of three drug regimens, A, B or C, as follows: • Regimen A—150 mg (5×30 mg) anle138b oral capsules or matching placebo QD, for 7 consecutive days in the fasted state, followed by a single administration of 150 mg anle138b oral capsule or matching placebo on Day 9 in the fed state, • Regimen B—300 mg (10×30 mg) anle138b oral capsules or matching placebo QD, for 7 consecutive days in the fasted state, followed by a single administration of 300 mg anle138b oral capsule (10×30 mg capsules) or matching placebo on Day 9 in the fed state, • Regimen C—150 mg (5×30 mg) anle138b oral capsules or matching placebo BID (total 300 mg daily), […]
Primary endpoints provided safety and tolerability information for the test product by assessing: AEs, vital signs, ECGs, physical examinations and laboratory safety tests, and to provide additional safety and tolerability information for the test product taken also in the fed state by assessing: AEs, vital signs, ECGs, physical examinations and laboratory safety tests.
Secondary endpoints provided PK information for the test product in PD patients by assessing plasma exposure under fast and fed conditions.

[3] = Regimen A 150 mg, Day 1, fasted
[4] = Regimen B 300 mg, Day 1, fasted
[5] = human, plasma, oral, 150 mg, Day 1, tau 24 h
[6] = human, plasma, oral, 150 mg, Day 7, tau 24 h

For `Brc1cccc(-c2cc(-c3ccc4c(c3)OCO4)n[nH]2)c1` [anle138b, 3-(1,3-benzodioxol-5-yl)-5-(3-bromophenyl)-1H-pyrazole], the “no-observed-adverse-effect-level (NOAEL)” value ([1]; 28-day toxicity study in rats) was 50 mg/kg/day, the NOAEL at 28 days ([1]; rat, in vivo) was 8.1 mg/kg and the “AR Cmax (accumulation ratio, geometric mean)” value ([2]; Regimen A 150 mg QD, Day 7) was 0.346. The “AR AUC (accumulation ratio, geometric mean)” value ([2]; Regimen A 150 mg QD, Day 7, tau 24 h) was 0.371, the “T1/2, individual subject values” ([2]; Regimen A 150 mg QD, Day 7, n = 2) was 16.25 h and the “maximum individual AUC(0-24) as % of the exposure limit in the protocol” value [2, 3] was roughly 6.19%. For the same molecule, the “maximum individual Cmax as % of the exposure limit in the protocol” value [2, 3] was “approximately 24.9%”, the “Frel AUC(0-24)” value ([2]; Regimen A 150 mg) was 132% and the “Frel Cmax” value ([2]; Regimen A 150 mg) was 104%. The “Tmax (median)” value ([2]; Regimen B 300 mg QD (row prints fed, title fasted state), Day 7) was 1.6 h, the “AR Cmax (accumulation ratio, geometric mean)” value ([2]; Regimen B 300 mg QD, Day 7) was 0.428 and the “AR AUC (accumulation ratio, geometric mean)” value ([2]; Regimen B 300 mg QD, Day 7, tau 24 h) was 0.351. The “maximum individual AUC(0-24) as % of the exposure limit in the protocol” value [2, 4] was roughly 8.4%, the “maximum individual Cmax as % of the exposure limit in the protocol” value [2, 4] was roughly 75.8% and the “Frel AUC(0-24)” value ([2]; Regimen B 300 mg) was 109%. For the same molecule, the “Frel Cmax” value ([2]; Regimen B 300 mg) was 71.4%, the “maximum individual Cmax as % of the exposure limit in the protocol” value ([2]; Regimen C 150 mg BID, Day 1, fasted) was roughly 26.4% and the “maximum individual AUC as % of the exposure limit in the protocol” value ([2]; Regimen C 150 mg BID, Day 1, fasted, AUC(0-12) vs limit based on AUC(0-24)) was roughly 4.94%. The “AR Cmax (accumulation ratio, geometric mean)” value ([2]; Regimen C 150 mg BID, Day 7) was 0.333, the “AR AUC (accumulation ratio, geometric mean)” value ([2]; Regimen C 150 mg BID, Day 7, tau 12 h) was 0.299 and the “safety and tolerability (in words)” value ([2]; doses up to 300 mg) was “safe and well tolerated”. For the same molecule, the concentration at 3 h ([2]; human, CSF, po, 300 mg, multiple QD oral doses of 300 mg, fasted, 3 h post-dose on Day 5, read-out: CSF anle138b concentration (geometric mean)) was 0.319 ng/mL, the Kp at 3 h ([2]; human, CSF/plasma, multiple QD oral doses of 300 mg, fasted, 3 h post-dose on Day 5, read-out: CSF/plasma anle138b concentration ratio (geometric mean)) was 0.0024 and the Cmax ([2]; human, plasma, oral, 150 mg, Day 1) was roughly 462 ng/mL. For the same molecule, the Tmax ([2]; human, plasma, oral, 150 mg, Day 1, read-out: Tmax (median)) was 1.25 h, the Tmax ([2]; human, plasma, oral, 150 mg, Day 1, read-out: Tmax (range)) was 1 to 1.5 h and the AUC [2, 5] was roughly 1040 ng·h/mL. It also gave a concentration at 24 h [2, 5] of 3.76 ng/mL, a Cmax ([2]; human, plasma, oral, 150 mg, Day 7) of roughly 160 ng/mL and a Tmax at 7 days ([2]; human, plasma, oral, 150 mg, Day 7, read-out: Tmax (median)) of 1 h. For the same molecule, the Tmax at 7 days ([2]; human, plasma, oral, 150 mg, Day 7, read-out: Tmax (range)) was 1 to 2 h, the AUC [2, 6] was roughly 388 ng·h/mL and the concentration at 24 h [2, 6] was 1.86 ng/mL. The half-life at 7 days ([2]; human, plasma, oral, 150 mg, Regimen A 150 mg QD, Day 7, n = 2, read-out: T1/2, individual subject values (converted)) was 17.1 h, the half-life ([2]; human, plasma, oral, 150 mg, Regimen A 150 mg single dose on Day 9, fed state, n = 3, read-out: T1/2 (geometric mean) (converted)) was 15.9 h and the AUC(0-t) ([2]; human, plasma, oral, 150 mg, Regimen A 150 mg single dose on Day 9, fed state, read-out: AUC(0-24) (geometric mean)) was 513 ng·h/mL. The AUC(0-t) ([2]; human, plasma, oral, 150 mg, Regimen A 150 mg single dose on Day 9, fed state, read-out: AUC(0-last) (geometric mean)) was 542 ng·h/mL.
